Measurements reported in patent publication US20240317884A1, “METHOD FOR ALLOWING IMMUNE CELLS INFILTRATION IN TUMORS” (Alethia Biotherapeutics Inc., priority 2021, published 2024).
“Also recorded” adds a separate entry of the source.

Experiments:
[1] = Non-clinical pharmacokinetics, single and repeat-dose, rats; assay type: in vivo; conditions: Sprague-Dawley rats; infusion
Excerpt: (§1) There was an approximate 70% increase in systemic exposure following repeated dosing from Day 1 to Day 26 which is consistent with the elimination half-life of AB-16B5 and the dosing intervals. […] The sCLU concentrations were generally back to their baseline levels after 3 to 5 days. The concurrent decrease in sCLU concentrations immediately following dosing with AB-16B5 is consistent with an antigen-sink phenomenon.

[2] = Non-clinical pharmacokinetics, single and repeat-dose, monkeys; assay type: in vivo; conditions: Rhesus monkeys
Excerpt: as §1

sCLU = biological target: T1, sCLU (Macaca mulatta, UniProt F6S885); assay: sCLU serum concentrations after single dose of AB-16B5; assay type: in vivo; conditions: Rhesus monkeys
T1 construct: from tissue; host or cells: serum of Rhesus monkeys dosed with AB-16B5
T1 sequence (F6S885 22-448): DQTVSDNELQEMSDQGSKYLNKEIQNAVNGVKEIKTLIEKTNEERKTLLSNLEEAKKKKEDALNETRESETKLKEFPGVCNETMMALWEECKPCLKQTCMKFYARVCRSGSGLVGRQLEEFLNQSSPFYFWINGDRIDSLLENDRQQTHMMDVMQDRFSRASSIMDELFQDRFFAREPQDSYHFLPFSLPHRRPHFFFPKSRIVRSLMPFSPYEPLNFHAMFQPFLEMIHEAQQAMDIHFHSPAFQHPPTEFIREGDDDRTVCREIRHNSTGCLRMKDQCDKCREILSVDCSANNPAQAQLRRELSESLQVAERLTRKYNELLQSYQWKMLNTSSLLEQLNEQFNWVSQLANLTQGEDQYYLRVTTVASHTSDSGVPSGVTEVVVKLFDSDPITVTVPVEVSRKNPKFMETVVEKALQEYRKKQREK
Excerpt: as §1

[3] = Non-clinical toxicity, weekly administration, rats; assay type: in vivo, Sprague-Dawley rats
Excerpt: This finding most likely reflects a slight antigenic stimulation by AB-16B5 in these 2 regional lymph nodes.

[4] = Non-clinical toxicity, weekly administration, monkeys; assay type: in vivo, Rhesus monkeys
Excerpt: Consequently, they were not considered to be toxicologically significant.

[5] = test system: frozen tissues from human, Rhesus monkey, and Sprague-Dawley rat; assay: Tissue cross-reactivity study; assay type: binding; conditions: AB-16B5 staining at 2 and 10 μg/mL
Procedure: In addition, a tissue cross-reactivity study was conducted to determine the potential cross-reactivity of AB-16B5 with frozen tissues from human, Rhesus monkey, and Sprague-Dawley rat tissues.

[6] = test system: advanced solid malignancy; assay: Phase I study AB-16B5-101: tumor response (RECIST); assay type: in vivo, human
[7] = Phase I: detection of AB-16B5 in tumor biopsies; assay type: in vivo, human; conditions: for Detection of AB-16B5 in Tumor Biopsies, Post-Treatment Biopsy: 12.0 mg/kg, after dosing on Cycle 2 Day 15
Excerpt: Tumor biopsies were collected during the standard dose escalation to investigate the presence of AB-16B5 within the tumor. A total of 4 pre-treatment and 5 post-treatment tumor biopsies were suitable for analysis. These post-treatment tumor biopsies were collected following dosing on Cycle 2 Day 15 (between Cycle 2 Day 15 and Cycle 2 Day 18). The biopsy sites were liver (n=2), lymph node (n=2), bladder, skin and vulva.

E-cadherin, vimentin = assay: Phase I: immunohistochemistry on paired tumor biopsies (epithelial phenotype); assay type: in vivo, human
Procedure: Immunohistochemistry studies were conducted on paired tumor biopsies to determine if the treatment with AB-16B5 was associated with a reacquisition of an epithelial phenotype.

[8] = test system: CA 15-3, CA-125, CA 19-9, CEA, LDH and PSA; assay: Phase I: circulating tumor biomarkers; assay type: in vivo, human
Procedure: Several well-established circulating biomarkers were evaluated to monitor the response to therapy. They included CA 15-3, CA-125, CA 19-9, CEA, LDH and PSA.

tumor biopsies = assay: Human tumor biopsies of patients treated with AB-16B5 as single agent (H&E); assay type: in vivo; conditions: after the second cycle
Procedure: In parallel human tumor biopsies of patients treated with AB-16B5 as single agent were analyzed (FIGS. 2B-2E). Needle biopsies obtained from a patient with metastatic thyroid cancer and form a patient with inoperable metastatic gastric cancer were sectioned and stained with hematoxylin and eosin. An on-treatment biopsy from a patient with thyroid cancer metastasic to the lungs was obtained after the second cycle treatment with AB-16B5. […] Hemosiderin-laden macrophages were observed inside necrotic areas some reflecting red blood cell extravasation associated with necrosis (not shown). […] On display one finds.

[9] = RECIST-evaluable population (14 subjects), 1.5-12.0 mg/kg
[10] = Subject 001, Pancreatic, 1.5 mg/kg weekly IV, 2 cycles
[11] = Subject 003, Soft Tissue Sarcoma, 6.0 mg/kg weekly IV, 2 cycles
[12] = Subject 005, Prostate, 6.0 mg/kg weekly IV, 2 cycles
[13] = Subject 010, Colorectal, 12.0 mg/kg weekly IV, 4 cycles
[14] = Subject 012, Breast, 12.0 mg/kg weekly IV, 2 cycles
[15] = Subject 013, Prostate, 12.0 mg/kg weekly IV, 2 cycles
[16] = Subject 014, Vulvar Melanoma, 12.0 mg/kg weekly IV, 2 cycles

AB-16B5: humanized IgG2 monoclonal antibody targeting sCLU; light chain SEQ ID NO:11, heavy chain SEQ ID NO:12
systemic exposure over 24 hours with increasing dose levels [1]: dose proportional manner
systemic exposure with increasing dose levels [2]: generally greater than dose proportional
drug accumulation in terms of Cmax ([2]; repeated dosing once or twice weekly): no evidence of drug accumulation
sCLU serum concentrations following dosing (sCLU): decreased significantly
No Observable Adverse Effect Level (NOAEL) ([3]; Sprague-Dawley rats, weekly administration): 100 mg/kg/dose
incidence of minimal lymphoid hypercellularity, mandibular lymph node ([3]; rat, in vivo): 1/20
incidence of minimal lymphoid hypercellularity, mesenteric lymph node ([3]; rat, in vivo): 2/20
treatment-related clinical signs and changes (body weight, food consumption, ophthalmology, clinical pathology, organ weights) ([3]; rat, in vivo): did not result in any treatment-related clinical signs
No Observable Adverse Effect Level (NOAEL) ([4]; Rhesus monkeys, weekly administration): 100 mg/kg/dose
signs of overt toxicity ([4]; rhesus monkey, in vivo): did not result in any signs of overt toxicity
hepatocellular vacuolation in the liver ([4]; rhesus monkey, in vivo, 100 mg/kg): 2 animals
membrane staining in tissue panels [5]: no membrane staining was observed
best overall response progressive disease (PD), number of subjects [6, 9]: 6 subjects
best overall response progressive disease (PD), share of subjects [6, 9]: 43%
best overall response stable disease (SD), number of subjects [6, 9]: 8 subjects
best overall response stable disease (SD), share of subjects [6, 9]: 57%
Best Overall Response [6, 10]: PD (progressive disease (PD))
Tumor Response at Last Assessment Non-Target Lesions [6, 10]: PD (New (progressive disease (PD))
Tumor Response at Last Assessment Target Lesions [6, 10]: PD (progressive disease (PD))
Tumor Response at Last Assessment Target Lesions ([6]; Subject 002, Endometrium, 3.0 mg/kg weekly IV, 4 cycles): PD (progressive disease (PD))
Best Overall Response [6, 11]: PD (progressive disease (PD))
Tumor Response at Last Assessment Non-Target Lesions [6, 11]: PD (New (progressive disease (PD))
Best Overall Response [6, 12]: PD (progressive disease (PD))
Tumor Response at Last Assessment Target Lesions [6, 12]: PD (progressive disease (PD))
Tumor Response at Last Assessment Non-Target Lesions ([6]; Subject 007, Gastric, 9.0 mg/kg weekly IV, 8 cycles): PD (New (progressive disease (PD))
Tumor Response at Last Assessment Non-Target Lesions ([6]; Subject 008, Thyroid, 9.0 mg/kg weekly IV, 4 cycles): PD (New (progressive disease (PD))
Tumor Response at Last Assessment Non-Target Lesions ([6]; Subject 009, Lung, 12.0 mg/kg weekly IV, 6 cycles): PD (New (progressive disease (PD))
Tumor Response at Last Assessment Non-Target Lesions [6, 13]: PD (New (progressive disease (PD))
Tumor Response at Last Assessment Target Lesions [6, 13]: PD (progressive disease (PD))
Best Overall Response [6, 14]: PD (progressive disease (PD))
Tumor Response at Last Assessment Non-Target Lesions [6, 14]: PD (progressive disease (PD))
Best Overall Response [6, 15]: PD (progressive disease (PD))
Tumor Response at Last Assessment Non-Target Lesions [6, 15]: PD (New (progressive disease (PD))
Best Overall Response [6, 16]: PD (progressive disease (PD))
Tumor Response at Last Assessment Non-Target Lesions [6, 16]: PD (New (progressive disease (PD))
Tumor Response at Last Assessment Non-Target Lesions ([6]; Subject 015, Ovarian Cancer, 12.0 mg/kg weekly IV, 4 cycles): PD (New (progressive disease (PD))
time on treatment with stable disease (SD) and clinical benefit ([6]; patient with advanced gastric cancer): 24 weeks
presence of AB-16B5 in all pre-treatment tumor biopsies ([7]; 4 pre-treatment biopsies, baseline): negative
presence of AB-16B5 in all post-treatment tumor biopsies analyzed ([7]; 5 post-treatment biopsies): confirmed
Detection of AB-16B5 in Tumor Biopsies, Post-Treatment Biopsy ([7]; Subject 009, Lung, biopsy site Liver): Positive
Detection of AB-16B5 in Tumor Biopsies, Post-Treatment Biopsy ([7]; Subject 010, Colorectal, biopsy site Liver): Positive
Detection of AB-16B5 in Tumor Biopsies, Pre-Treatment Biopsy ([7]; Subject 011, Colorectal, biopsy site Lymph node, baseline): Negative
Detection of AB-16B5 in Tumor Biopsies, Post-Treatment Biopsy ([7]; Subject 012, Breast, biopsy site Skin): Positive
Detection of AB-16B5 in Tumor Biopsies, Pre-Treatment Biopsy ([7]; Subject 012, Breast, biopsy site Skin, baseline): Negative
Detection of AB-16B5 in Tumor Biopsies, Post-Treatment Biopsy ([7]; Subject 013, Prostate, biopsy site Bladder): Positive
Detection of AB-16B5 in Tumor Biopsies, Pre-Treatment Biopsy ([7]; Subject 014, Vulvar melanoma, biopsy site Vulva, baseline): Negative
Detection of AB-16B5 in Tumor Biopsies, Post-Treatment Biopsy ([7]; Subject 015, Ovarian, biopsy site Lymph node): Positive
Detection of AB-16B5 in Tumor Biopsies, Pre-Treatment Biopsy ([7]; Subject 015, Ovarian, biopsy site Lymph node, baseline): Negative
E-cadherin Expression in Post-Treatment (E-cadherin, vimentin; Subject 006, Breast, biopsy site Skin, 9.0 mg/kg): Increase
E-cadherin Expression in Post-Treatment (E-cadherin, vimentin; Subject 007, Gastric, biopsy site Gastric, 9.0 mg/kg): Increase
vimentin expression after treatment (E-cadherin, vimentin; Subject 007, advanced gastric cancer, paired tumor biopsies): loss of vimentin expression
E-cadherin Expression in Post-Treatment (E-cadherin, vimentin; Subject 012, Breast, biopsy site Skin, 12.0 mg/kg): Decrease
E-cadherin Expression in Post-Treatment (E-cadherin, vimentin; Subject 013, Prostate, biopsy site Bladder, 12.0 mg/kg): did not change; also recorded: No change
tumor biomarker levels over time ([8]; CA 15-3, CA-125, CA 19-9, CEA, LDH and PSA, correlated with disease progression): increased over time
level of CEA ([8]; in few patients): remained stable or decreased
immune infiltrate, on-treatment biopsy (tumor biopsies; patient with inoperable metastatic gastric cancer, small fragments): infiltrated by a mix neutrophilic and mononucleated immune cells infiltrate
immune infiltrate, on-treatment biopsy (tumor biopsies; patient with thyroid cancer metastatic to the lungs, edge of fragment): lymphoplasmacytic infiltrate was observed
necrosis of tumor fragments, on-treatment biopsy (tumor biopsies; patient with thyroid cancer metastatic to the lungs, single agent): essentially all tumor fragments were necrotic
